Reference: ChEMBL document CHEMBL4304835 (ACS Med Chem Lett, 2019)

How the values were obtained:
[1] = target: Bromodomain-containing protein 4 (Homo sapiens, UniProt O60885); assay: Displacement of Bio-JQ1 from recombinant human His6 tagged BRD4 bromodomain 1 by alphascreen assay
[2] = target: Transcription initiation factor TFIID subunit 1 (Homo sapiens, UniProt P21675); assay: Displacement of biotinylated probe from human TAF1 bromodomain 2 (1522 to 1656 residues) expressed in Escherichia coli BL21 (DE3) by alphascreen assay
Transcription initiation factor TFIID subunit 1, sequence (P21675 whole entry, the tested form may be a part): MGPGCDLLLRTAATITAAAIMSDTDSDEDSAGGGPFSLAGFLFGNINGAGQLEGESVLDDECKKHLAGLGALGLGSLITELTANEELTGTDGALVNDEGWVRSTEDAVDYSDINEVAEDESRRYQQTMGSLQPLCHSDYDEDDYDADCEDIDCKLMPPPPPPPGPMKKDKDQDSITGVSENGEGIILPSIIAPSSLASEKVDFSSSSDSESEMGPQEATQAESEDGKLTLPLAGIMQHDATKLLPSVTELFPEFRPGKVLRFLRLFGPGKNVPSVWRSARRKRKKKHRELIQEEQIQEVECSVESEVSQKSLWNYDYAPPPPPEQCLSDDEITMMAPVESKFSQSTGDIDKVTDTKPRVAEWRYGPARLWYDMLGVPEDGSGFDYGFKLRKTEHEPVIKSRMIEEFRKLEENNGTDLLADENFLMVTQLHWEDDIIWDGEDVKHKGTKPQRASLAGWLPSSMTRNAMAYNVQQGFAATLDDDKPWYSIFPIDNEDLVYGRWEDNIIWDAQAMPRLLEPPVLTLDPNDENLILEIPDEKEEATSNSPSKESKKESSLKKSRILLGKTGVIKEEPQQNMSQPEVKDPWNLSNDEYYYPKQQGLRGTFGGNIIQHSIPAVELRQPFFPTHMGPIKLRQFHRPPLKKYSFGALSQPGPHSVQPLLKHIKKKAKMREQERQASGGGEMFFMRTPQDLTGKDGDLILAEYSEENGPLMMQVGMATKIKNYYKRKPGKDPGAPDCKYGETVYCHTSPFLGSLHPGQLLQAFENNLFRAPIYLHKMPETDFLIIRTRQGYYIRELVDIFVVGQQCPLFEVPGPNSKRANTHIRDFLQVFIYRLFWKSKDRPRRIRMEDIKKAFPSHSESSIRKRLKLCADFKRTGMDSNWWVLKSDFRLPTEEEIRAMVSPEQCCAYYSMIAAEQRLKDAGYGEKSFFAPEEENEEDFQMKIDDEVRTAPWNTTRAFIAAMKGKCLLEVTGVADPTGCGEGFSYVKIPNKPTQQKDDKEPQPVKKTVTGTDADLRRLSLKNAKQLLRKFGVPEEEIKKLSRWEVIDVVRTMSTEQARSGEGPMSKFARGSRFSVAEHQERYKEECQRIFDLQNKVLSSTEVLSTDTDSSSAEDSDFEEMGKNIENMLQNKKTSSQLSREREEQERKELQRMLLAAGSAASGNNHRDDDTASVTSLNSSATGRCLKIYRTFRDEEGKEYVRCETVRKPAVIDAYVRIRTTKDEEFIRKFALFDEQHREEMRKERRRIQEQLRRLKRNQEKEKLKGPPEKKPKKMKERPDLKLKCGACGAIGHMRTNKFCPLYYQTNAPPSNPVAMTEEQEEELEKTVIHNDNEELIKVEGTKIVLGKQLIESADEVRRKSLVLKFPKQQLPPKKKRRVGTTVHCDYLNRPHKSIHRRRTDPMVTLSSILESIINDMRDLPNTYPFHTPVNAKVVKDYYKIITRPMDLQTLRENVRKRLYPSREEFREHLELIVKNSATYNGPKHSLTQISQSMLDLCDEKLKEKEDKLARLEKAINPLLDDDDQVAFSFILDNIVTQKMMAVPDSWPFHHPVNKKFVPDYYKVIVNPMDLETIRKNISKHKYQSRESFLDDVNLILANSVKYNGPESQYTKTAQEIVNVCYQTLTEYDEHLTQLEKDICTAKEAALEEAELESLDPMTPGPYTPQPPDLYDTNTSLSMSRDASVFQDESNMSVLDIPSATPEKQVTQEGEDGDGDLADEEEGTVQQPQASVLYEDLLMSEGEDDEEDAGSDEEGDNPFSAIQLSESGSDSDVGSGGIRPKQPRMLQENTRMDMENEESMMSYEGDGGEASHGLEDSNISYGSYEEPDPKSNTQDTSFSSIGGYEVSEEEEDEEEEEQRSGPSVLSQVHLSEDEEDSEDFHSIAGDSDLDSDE

Which results are given for `CC[C@@H]1C(=O)Nc2cnc(Nc3ccc(C(=O)NC4CCN(C)CC4)cc3OC)nc2N1C1CCCC1`?
IC50 [1]: > 10000 nM; IC50 [2]: > 10000 nM

For `CC[C@@H]1C(=O)N(CC)c2cnc(Nc3ccc(C(=O)NC4CCN(C)CC4)cc3OC)nc2N1C1CCCC1`, which IC50 [1] is on record?
The IC50 was 690 nM.

And the IC50 [2]?
The IC50 was 410 nM.

What does the source list for `CC[C@@H]1C(=O)N(C)c2cnc(Nc3ccc(C(=O)NC4CCN(C)CC4)cc3)nc2N1C1CCCC1`?
IC50 [1]: 280 nM; IC50 [2]: 150 nM

Which IC50 [1] does the source give for `CC[C@@H]1C(=O)N(C)c2cnc(Nc3ccc(C(=O)NC4CCN(C)CC4)cc3OC3CCCC3)nc2N1C1CCCC1` here?
Its IC50 is 33 nM.

What about the IC50 [2] of the same compound?
The IC50 was 100 nM.

Which IC50 [1] does the source give for `CC[C@@H]1C(=O)N(C)c2cnc(Oc3ccc(C(=O)NC4CCN(C)CC4)cc3OC)nc2N1C1CCCC1` here?
The IC50 was 620 nM.

And the IC50 [2]?
The IC50 was greater than 10000 nM.

For `CC[C@@H]1C(=O)N(C)c2cnc(Nc3ccc(C(=O)NC4CCN(C)CC4)cc3OC3CCC3)nc2N1C1CCCC1`, which IC50 [1] is on record?
Its IC50 is 62 nM.

And the IC50 [2]?
The IC50 was 110 nM.

`C[C@@H]1C(=O)N(C)c2cnc(Nc3ccc(C(=O)NC4CCN(C)CC4)cc3)nc2N1C1CCCC1` was tested. Which IC50 [1] did it give?
Its IC50 is 68 nM.

What about the IC50 [2] of the same compound?
The IC50 was 87 nM.

Which results are given for `COc1cc(C(=O)N2CCC(O)CC2)ccc1Nc1cc2c(cc1C)N(C)C(=O)[C@@H](C)N2C1CCCC1`?
IC50 [1]: 2100 nM; IC50 [2]: > 10000 nM

Which results are given for `COc1cc(C(=O)N2CCC(O)CC2)ccc1Nc1ccc2c(n1)N(C1CCCC1)[C@H](C)C(=O)N2C`?
IC50 [1]: 47 nM; IC50 [2]: 93 nM

With `CC[C@@H]1C(=O)N(C)c2cnc(Nc3ccc(C(=O)NC4CCN(C)CC4)cc3OC(C)C)nc2N1C1CCCC1` as the compound, how does the IC50 [1] read?
The IC50 was 63 nM.

What about the IC50 [2] of the same compound?
The IC50 was 210 nM.

Which IC50 [1] does the source give for `COc1cc(C(=O)N2CCC(O)CC2)ccc1Nc1ccc2c(n1)N(Cc1ccccc1)[C@H](C)C(=O)N2C` here?
The IC50 was 240 nM.

What about the IC50 [2] of the same compound?
The IC50 was 720 nM.

What does the source list for `C=CCCN1C(=O)[C@@H](C)N(C2CCOCC2)c2nc(Nc3ccc(C(=O)NC4CCN(C)CC4)cc3OC)ccc21`?
IC50 [1]: > 10000 nM; IC50 [2]: 82 nM

What does the source list for `COc1cc(C(=O)N2CCC(O)CC2)ccc1Nc1ccc2c(n1)N1CCCC[C@@H]1C(=O)N2C`?
IC50 [1]: 7200 nM; IC50 [2]: 210 nM

Which IC50 [1] does the source give for `COc1cc(C(=O)N2CCC(O)CC2)ccc1Nc1ccc2c(c1)N(C1CCCC1)[C@H](C)C(=O)N2C` here?
The IC50 was 110 nM.

And the IC50 [2]?
Its IC50 is 580 nM.

Which IC50 [1] does the source give for `COc1cc(C(=O)NC2CCN(C)CC2)ccc1Nc1ccc2c(n1)N(C1CCOCC1)[C@H](C)C(=O)N2C` here?
The IC50 was 49 nM.

What about the IC50 [2] of the same compound?
Its IC50 is less than 10 nM.

For `C=CCCN1C(=O)[C@@H](C)N(C2CCCC2)c2nc(Nc3ccc(C(=O)N4CCC(O)CC4)cc3OC)ccc21`, which IC50 [1] is on record?
Its IC50 is 4400 nM.

And the IC50 [2]?
Its IC50 is 570 nM.

Which IC50 [1] does the source give for `COc1cc(C(=O)N2CCC(O)CC2)ccc1Nc1cc2c(cc1OC)N(C)C(=O)[C@@H](C)N2C1CCCC1` here?
The IC50 was 7300 nM.

And the IC50 [2]?
Its IC50 is 750 nM.

Which IC50 [1] does the source give for `CC[C@@H]1C(=O)N(C)c2ccc(Nc3ccc(C(=O)NC4CCN(C)CC4)cc3OC)nc2N1C1CCCC1` here?
The IC50 was 150 nM.

And the IC50 [2]?
Its IC50 is 450 nM.

How did the IC50 [1] turn out when `C[C@@H]1C(=O)N(C)c2ccc(Nc3ccc(C(=O)NC4CCN(C)CC4)cc3OC3CCCC3)nc2N1C1CCCC1` was run?
The IC50 was 48 nM.

And the IC50 [2]?
The IC50 was 31 nM.

`CC(C)Oc1cc(C(=O)NC2CCN(C)CC2)ccc1Nc1ccc2c(n1)N(C1CCCC1)[C@H](C)C(=O)N2C` was tested. Which IC50 [1] did it give?
The IC50 was 130 nM.

What about the IC50 [2] of the same compound?
Its IC50 is 89 nM.

Which IC50 [1] does the source give for `COc1cc(C(=O)N2CCC(O)CC2)ccc1Nc1ccc2c(n1)N(C1CCOCC1)[C@H](C)C(=O)N2C` here?
The IC50 was 140 nM.

And the IC50 [2]?
The IC50 was 38 nM.

Which IC50 [1] does the source give for `COc1cc(C(=O)N2CCC(O)CC2)ccc1Nc1ccc2c(c1C)N(C)[C@H](C)C(=O)N2C` here?
The IC50 was greater than 10000 nM.

What about the IC50 [2] of the same compound?
The IC50 was 980 nM.

For `CC(C)Oc1cc(C(=O)NC2CCN(C)CC2)ccc1Nc1ncc2c(n1)N(C1CCCC1)[C@H](C)C(=O)N2C`, which IC50 [1] is on record?
Its IC50 is 220 nM.

What about the IC50 [2] of the same compound?
Its IC50 is 320 nM.

How did the IC50 [1] turn out when `COc1cc(C(=O)N2CCC(O)CC2)ccc1Nc1ccc2c(n1)N(C1CCCCC1)[C@H](C)C(=O)N2C` was run?
The IC50 was 150 nM.

And the IC50 [2]?
Its IC50 is 72 nM.

What does the source list for `C=CCN1C(=O)[C@@H](C)N(C2CCCC2)c2nc(Nc3ccc(C(=O)N4CCC(O)CC4)cc3OC)ccc21`?
IC50 [1]: 4500 nM; IC50 [2]: 1700 nM

`COc1cc(C(=O)N2CCC(O)CC2)ccc1Nc1ccc2c(n1)N(C1CCCCCC1)[C@H](C)C(=O)N2C` was tested. Which IC50 [1] did it give?
Its IC50 is 220 nM.

What about the IC50 [2] of the same compound?
The IC50 was 240 nM.

With `COc1cc(C(=O)NC2CCN(C)CC2)ccc1Nc1ccc2c(n1)N1CCCC[C@@H]1C(=O)N2C` as the compound, how does the IC50 [1] read?
Its IC50 is 2700 nM.

What about the IC50 [2] of the same compound?
Its IC50 is 63 nM.

For `CC[C@@H]1C(=O)N(C)c2cnc(N(C)c3ccc(C(=O)NC4CCN(C)CC4)cc3OC)nc2N1C1CCCC1`, which IC50 [1] is on record?
Its IC50 is 100 nM.

And the IC50 [2]?
The IC50 was greater than 10000 nM.

How did the IC50 [1] turn out when `COc1cc(C(=O)N2CCC(O)CC2)ccc1Nc1cc2c(cc1F)N(C)C(=O)[C@@H](C)N2C1CCCC1` was run?
Its IC50 is 680 nM.

What about the IC50 [2] of the same compound?
The IC50 was 4600 nM.

Which results are given for `COc1cc(C(=O)NC2CCN(C)CC2)ccc1Nc1ccc2c(n1)N(C1CCCC1)[C@H](C)C(=O)N2C`?
IC50 [1]: 37 nM; IC50 [2]: 16 nM

For `C[C@@H]1C(=O)N(C)c2ccc(Nc3ccc(C(=O)NC4CCN(C)CC4)cc3)nc2N1C1CCCC1`, which IC50 [1] is on record?
Its IC50 is 190 nM.

What about the IC50 [2] of the same compound?
Its IC50 is 340 nM.

Which IC50 [1] does the source give for `COc1cc(C(=O)N2CCC(O)CC2)ccc1Nc1ccc2c(n1)N(C1CCC(C)(C)C1)[C@H](C)C(=O)N2C` (mixture of isomers) here?
The IC50 was 140 nM.

And the IC50 [2]?
Its IC50 is 300 nM.
